Experimental findings from ChEMBL document CHEMBL5360634, “Turonicin A, an Antifungal Linear Polyene Polyketide from an Australian Streptomyces sp” (J Nat Prod, 2023) are described below.

In brackets after ≈: the same amount, converted by molar mass. A value given as a limit tells only on which side of the number the result lay.

As a reminder, the IC50 is the concentration that inhibits the measured activity by half. A word on the MIC: it is the lowest concentration that inhibits growth of the organism.

A short description of series [1]: Antiproliferative activity against mouse NS-1 cells assessed as inhibition of cell growth measured after 48 hrs by resazurin staining based analysis. The class given is functional. The conditions noted are these: NS1, 48 h.
Series [2] can be described thus: Cytotoxicity against human NFF cells assessed as inhibition of cell growth measured after 48 hrs by resazurin staining based analysis. The class given is toxicity. For orientation: Alamar Blue is a resazurin reagent that responds to reducing activity.
The subject of the next series is Tritrichomonas foetus. Kind of series: Antiprotozoal activity against Tritrichomonas foetus KV-1 strain assessed as inhibition of protozoal growth measured after 72 hrs under anaerobic conditions. The conditions noted are these: KV-1, 72 h. The class given is functional, organism-based.
A further series has as its system Saccharomyces cerevisiae. The series can be described thus: Antifungal activity against Saccharomyces cerevisiae assessed as reduction in fungal growth measured after 48 hrs by resazurin staining based analysis. The series is classed as functional.
Another series relates to Bacillus subtilis. The series can be described thus: Antibacterial activity against Bacillus subtilis ATCC 6633 assessed as inhibition of bacterial growth measured after 48 hrs by resazurin staining based analysis. The class given is functional.
For a further series, the system named is Candida albicans. The series can be described thus: Antifungal activity against Candida albicans ATCC 10231 assessed as reduction in fungal growth measured after 48 hrs by resazurin staining based analysis. The series is classed as functional.
The subject of the next series is Staphylococcus aureus. The series can be described thus: Antibacterial activity against Staphylococcus aureus assessed as inhibition of bacterial growth measured after 48 hrs by resazurin staining based analysis. The series is classed as functional.

For `CSC[S@+]([O-])C[C@H](CO)NC(=O)/C=C/c1c(C)[nH]c(=O)[nH]c1=O`, the IC50 in series [1] stood at 0.4 µM. For the same molecule, the half-inhibitory concentration (IC50) at 48 h in series [2] came out at 1.2 µM.

Turning to `Cc1ncc([N+](=O)[O-])n1CCO` [METRONIDAZOLE], the IC50 in the series on Tritrichomonas foetus was found to be 0.9 µM.

On to `C\C(=C/C=C/C=C/C=C/CC/C=C/[C@H](C)[C@H](O)[C@@H](C)[C@H](O)/C=C/C=C/C=C/C=C/C=C/C[C@H](O)[C@H](C)C(=O)C[C@H](O)C[C@H](O)C[C@H](O)/C=C/C[C@@H](O)C[C@H](O)C[C@@H](O)C[C@H](O)/C=C/C[C@H](O)/C=C/C[C@H](O)C[C@H](O)CCCN)C(=O)O`, for which the half-inhibitory concentration (IC50) (in series [1]; in the series with Tritrichomonas foetus) was above 80 µM in each case. Moreover, the minimum inhibitory concentration (MIC) is 0.0004 µg/mL (≈ 0.000351 µM) in the series with Saccharomyces cerevisiae, 0.39 µg/mL (≈ 0.342 µM) in the series with Bacillus subtilis, 0.0015 µg/mL (≈ 0.00132 µM) in the series with Candida albicans and 3.1 µg/mL (≈ 2.72 µM) in the series with Staphylococcus aureus. In addition, in series [2], the concentration for half-maximal inhibition (IC50) at 48 h was above 80 µM.

`Clc1ccccc1C(c1ccccc1)(c1ccccc1)n1ccnc1` [CLOTRIMAZOLE]: the MIC with Saccharomyces cerevisiae turned out to be 0.4 µg/mL (≈ 1.16 µM); with Candida albicans it was 0.1 µg/mL (≈ 0.29 µM).

Turning to `C\C(=C/C=C/C=C/C=C/C=C/CC/C=C/[C@H](C)[C@H](O)[C@@H](C)[C@H](O)/C=C/C=C/C=C/C=C/C=C/C[C@H](O)[C@H](C)C(=O)C[C@H](O)C[C@H](O)C[C@H](O)/C=C/C[C@@H](O)C[C@H](O)C[C@@H](O)C[C@H](O)/C=C/C[C@H](O)/C=C/C[C@H](O)C[C@H](O)CCCN)C(=O)O`, the IC50 (in series [1]; with Tritrichomonas foetus) was above 80 µM throughout. In addition, the MIC was 0.0002 µg/mL (≈ 0.000171 µM) with Saccharomyces cerevisiae, 0.097 µg/mL (≈ 0.0832 µM) in the series with Bacillus subtilis, 0.0008 µg/mL (≈ 0.000686 µM) in the series with Candida albicans and 1.5 µg/mL (≈ 1.29 µM) with Staphylococcus aureus. The IC50 at 48 h in series [2] is above 80 µM.

Consider `C\C(=C/C=C/C=C/C=C/CC/C=C/[C@H](C)[C@H](O)[C@@H](C)[C@H](O)/C=C/C=C/C=C/C=C/C=C/C[C@H](O)[C@H](C)C(=O)C[C@H](O)C[C@H](O)C[C@H](O)/C=C/C[C@@H](O)C[C@H](O)C[C@@H](O)C[C@H](O)/C=C/C[C@H](O)/C=C/C[C@H](O)CCCNC(=N)N)C(=O)O`, for which the half-maximal inhibitory concentration (IC50) in series [1] is 44 µM; in the series with Tritrichomonas foetus it was above 80 µM. The MIC came out at 0.0008 µg/mL (≈ 0.000703 µM) with Saccharomyces cerevisiae, 0.097 µg/mL (≈ 0.0852 µM) with Bacillus subtilis, 0.0031 µg/mL (≈ 0.00272 µM) in the series with Candida albicans and 0.39 µg/mL (≈ 0.343 µM) in the series on Staphylococcus aureus. In series [2], the IC50 at 48 h was above 80 µM.

Turning to `CN[C@H](CC(C)C)C(=O)N[C@H]1C(=O)N[C@@H](CC(N)=O)C(=O)N[C@H]2C(=O)N[C@H]3C(=O)N[C@H](C(=O)N[C@H](C(=O)O)c4cc(O)cc(O)c4-c4cc3ccc4O)[C@H](O)c3ccc(c(Cl)c3)Oc3cc2cc(c3O[C@@H]2O[C@H](CO)[C@@H](O)[C@H](O)[C@H]2O[C@H]2C[C@](C)(N)[C@H](O)[C@H](C)O2)Oc2ccc(cc2Cl)[C@H]1O` [VANCOMYCIN], the figures for the MIC in the series on Bacillus subtilis and with Staphylococcus aureus were 0.05 µg/mL (≈ 0.0345 µM) and 0.8 µg/mL (≈ 0.552 µM), respectively.
